Data from ChEMBL document CHEMBL1201862, “PubChem BioAssay data set” (2004).
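Grown in 96-well plates, cells were treated for 48 hours with each compound at five concentrations. Insufficient inhibition: endpoint recorded as highest concentration tested. Abbreviation: GI50, concentration required for 50% inhibition of growth.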 The source made the active and inactive calls. Rule as the data show it: active = GI50 up to about 1.1 µM and inactive = higher.

Assays:
Experiment in all cases: inhibition of tumour cell growth, NCI panel, 48 h
786-0 = test system: 786-0
A498 = test system: A498
A549 = test system: A549
ACHN = test system: ACHN
BT-549 = test system: BT-549
CAKI-1 = test system: CAKI-1
CCRF-CEM = test system: CCRF-CEM
COLO 205 = test system: COLO 205
DU-145 = test system: DU-145
EKVX = test system: EKVX
HCC 2998 = test system: HCC 2998
HCT-116 = test system: HCT-116
HCT-15 = test system: HCT-15
HL-60 = test system: HL-60
HOP-62 = test system: HOP-62
HOP-92 = test system: HOP-92
HT-29 = test system: HT-29
Hs-578T = test system: Hs-578T
IGROV-1 = test system: IGROV-1
K562 = test system: K562
KM12 = test system: KM12
LOX IMVI = test system: LOX IMVI
M14 = test system: M14
MCF7 = test system: MCF7
MDA-MB-231 = test system: MDA-MB-231
MDA-MB-435 = test system: MDA-MB-435
MDA-N = test system: MDA-N
MOLT-4 = test system: MOLT-4
Malme-3M = test system: Malme-3M
NCI-H226 = test system: NCI-H226
NCI-H23 = test system: NCI-H23
NCI-H460 = test system: NCI-H460
NCI-H522 = test system: NCI-H522
NCI/ADR-RES = test system: NCI/ADR-RES
OVCAR-3 = test system: OVCAR-3
OVCAR-4 = test system: OVCAR-4
OVCAR-5 = test system: OVCAR-5
OVCAR-8 = test system: OVCAR-8
PC-3 = test system: PC-3
RPMI-8226 = test system: RPMI-8226
RXF 393 = test system: RXF 393
SF-268 = test system: SF-268
SF-295 = test system: SF-295
SF-539 = test system: SF-539
SK-MEL-28 = test system: SK-MEL-28
SK-MEL-2 = test system: SK-MEL-2
SK-MEL-5 = test system: SK-MEL-5
SK-OV-3 = test system: SK-OV-3
SN12C = test system: SN12C
SNB-19 = test system: SNB-19
SNB-75 = test system: SNB-75
SR = test system: SR
SW-620 = test system: SW-620
T47D = test system: T47D
TK-10 = test system: TK-10
U-251 = test system: U-251
UACC-257 = test system: UACC-257
UACC-62 = test system: UACC-62
UO-31 = test system: UO-31
DLD-1 = test system: DLD-1
DMS-114 = test system: DMS-114
DMS-273 = test system: DMS-273
KM-20L2 = test system: KM-20L2
LXFL 529 = test system: LXFL 529
M19-MEL = test system: M19-MEL
XF498 = test system: XF498

`CCCCCOc1ccc(NC2=C(Cl)C(=O)c3c(O)ccc(O)c3C2=O)cc1` was tested, and the GI50 (786-0) was 1.6 µM (inactive), the GI50 (A498) was > 10 µM (inactive) and the GI50 (A549) was > 10 µM (inactive). For the same molecule, the GI50 (ACHN) was > 10 µM (inactive), the GI50 (BT-549) was 4.42 µM (inactive) and the GI50 (CAKI-1) was > 10 µM (inactive). For the same molecule, the GI50 (CCRF-CEM) was 3.52 µM (inactive), the GI50 (COLO 205) was 2.63 µM (inactive) and the GI50 (DU-145) was > 10 µM (inactive). The GI50 (EKVX) was > 10 µM (inactive), the GI50 (HCC 2998) was 2.65 µM (inactive) and the GI50 (HCT-116) was 2.88 µM (inactive). For the same molecule, the GI50 (HCT-15) was 2.02 µM, the GI50 (HL-60) was 1.37 µM (inactive) and the GI50 (HOP-62) was 5.85 µM (inactive). For the same molecule, the GI50 (HOP-92) was 6.85 µM (inactive), the GI50 (HT-29) was 4.75 µM (inactive) and the GI50 (Hs-578T) was 1.91 µM (inactive). For the same molecule, the GI50 (IGROV-1) was > 10 µM (inactive), the GI50 (K562) was 3.27 µM (inactive) and the GI50 (KM12) was 4.14 µM (inactive). The GI50 (LOX IMVI) was 1.79 µM (inactive), the GI50 (M14) was 3.03 µM (inactive) and the GI50 (MCF7) was 1.33 µM (inactive). For the same molecule, the GI50 (MDA-MB-231) was 3.35 µM (inactive), the GI50 (MDA-MB-435) was 2.24 µM (inactive) and the GI50 (MDA-N) was 3.03 µM (inactive). The GI50 (MOLT-4) was 3.7 µM (inactive), the GI50 (Malme-3M) was 2.49 µM (inactive) and the GI50 (NCI-H226) was > 10 µM (inactive). The GI50 (NCI-H23) was 3.27 µM (inactive), the GI50 (NCI-H460) was 4.13 µM (inactive) and the GI50 (NCI-H522) was 2.55 µM (inactive). For the same molecule, the GI50 (NCI/ADR-RES) was 6.04 µM (inactive), the GI50 (OVCAR-3) was 4.2 µM (inactive) and the GI50 (OVCAR-4) was 5.12 µM (inactive). For the same molecule, the GI50 (OVCAR-5) was > 10 µM (inactive), the GI50 (OVCAR-8) was 2.99 µM (inactive) and the GI50 (PC-3) was 5.25 µM (inactive). The GI50 (RPMI-8226) was 2.43 µM (inactive), the GI50 (RXF 393) was 4.71 µM (inactive) and the GI50 (SF-268) was > 10 µM (inactive). The GI50 (SF-295) was > 10 µM (inactive), the GI50 (SF-539) was 6.52 µM (inactive) and the GI50 (SK-MEL-28) was 2.84 µM (inactive). The GI50 (SK-MEL-2) was > 10 µM (inactive), the GI50 (SK-MEL-5) was 5.43 µM (inactive) and the GI50 (SK-OV-3) was > 10 µM (inactive). The GI50 (SN12C) was 2.96 µM (inactive), the GI50 (SNB-19) was 7.87 µM (inactive) and the GI50 (SNB-75) was > 10 µM (inactive). For the same molecule, the GI50 (SR) was 2.36 µM (inactive), the GI50 (SW-620) was 3.87 µM (inactive) and the GI50 (T47D) was 2.76 µM (inactive). For the same molecule, the GI50 (TK-10) was 5.97 µM (inactive), the GI50 (U-251) was 6.38 µM (inactive) and the GI50 (UACC-257) was 6.15 µM (inactive). The GI50 (UACC-62) was 5.42 µM (inactive) and the GI50 (UO-31) was 5.26 µM (inactive).

`COC(=O)c1cc(CC(C)C)c2c(c1)[nH]c1ccccc12` was tested, and the GI50 (786-0) was > 100 µM (inactive), the GI50 (A498) was > 100 µM (inactive) and the GI50 (A549) was > 100 µM (inactive). For the same molecule, the GI50 (ACHN) was > 100 µM (inactive), the GI50 (CAKI-1) was > 100 µM (inactive) and the GI50 (CCRF-CEM) was > 100 µM (inactive). The GI50 (COLO 205) was > 100 µM (inactive), the GI50 (DLD-1) was > 100 µM (inactive) and the GI50 (DMS-114) was 50.4 µM (inactive). The GI50 (DMS-273) was 53.7 µM (inactive), the GI50 (EKVX) was > 100 µM (inactive) and the GI50 (HCC 2998) was 70.8 µM (inactive). The GI50 (HCT-116) was > 100 µM (inactive), the GI50 (HCT-15) was 52.1 µM and the GI50 (HOP-92) was 43.5 µM (inactive). For the same molecule, the GI50 (HT-29) was > 100 µM (inactive), the GI50 (IGROV-1) was > 100 µM (inactive) and the GI50 (K562) was 15.9 µM (inactive). For the same molecule, the GI50 (KM-20L2) was > 100 µM (inactive), the GI50 (KM12) was 91.2 µM (inactive) and the GI50 (LOX IMVI) was > 100 µM (inactive). The GI50 (LXFL 529) was > 100 µM (inactive), the GI50 (M14) was > 100 µM (inactive) and the GI50 (M19-MEL) was > 100 µM (inactive). For the same molecule, the GI50 (MOLT-4) was 34 µM (inactive), the GI50 (Malme-3M) was > 100 µM (inactive) and the GI50 (NCI-H226) was 28.7 µM (inactive). For the same molecule, the GI50 (NCI-H23) was 49 µM (inactive), the GI50 (NCI-H460) was > 100 µM (inactive) and the GI50 (NCI-H522) was 68.2 µM (inactive). The GI50 (OVCAR-3) was > 100 µM (inactive), the GI50 (OVCAR-4) was > 100 µM (inactive) and the GI50 (OVCAR-5) was > 100 µM (inactive). The GI50 (OVCAR-8) was > 100 µM (inactive), the GI50 (SF-268) was > 100 µM (inactive) and the GI50 (SF-295) was > 100 µM (inactive). The GI50 (SF-539) was > 100 µM (inactive), the GI50 (SK-MEL-28) was > 100 µM (inactive) and the GI50 (SK-MEL-2) was > 100 µM (inactive). For the same molecule, the GI50 (SK-MEL-5) was 78.7 µM (inactive), the GI50 (SK-OV-3) was > 100 µM (inactive) and the GI50 (SN12C) was > 100 µM (inactive). The GI50 (SNB-19) was > 100 µM (inactive), the GI50 (SNB-75) was 18.2 µM (inactive) and the GI50 (SW-620) was 47.2 µM (inactive). For the same molecule, the GI50 (TK-10) was > 100 µM (inactive), the GI50 (U-251) was > 100 µM (inactive) and the GI50 (UACC-257) was > 10 µM (inactive). For the same molecule, the GI50 (UACC-62) was 96.8 µM (inactive), the GI50 (UO-31) was > 100 µM (inactive) and the GI50 (XF498) was > 100 µM (inactive).
